How the values were obtained:
[1] = tested on: cloned human α2-AR receptor; conditions: disclosed in WO9846572; cited from earlier work
α2-ARs [2] = target: T1, α2-ARs (Homo sapiens, UniProt P08913); test: [35S]GTPγS binding functional assay, compounds alone; format: biochemical; conditions: for agonistic or antagonistic properties in [35S]GTPγS experiments: human brain PFC; for stimulation of [35S]GTPγS binding by the compound on its own: human brain PFC membranes
T1 construct: other: human brain tissue in vitro; other: stimulation of [35S]GTPγS b
T1 sequence (P08913 whole entry): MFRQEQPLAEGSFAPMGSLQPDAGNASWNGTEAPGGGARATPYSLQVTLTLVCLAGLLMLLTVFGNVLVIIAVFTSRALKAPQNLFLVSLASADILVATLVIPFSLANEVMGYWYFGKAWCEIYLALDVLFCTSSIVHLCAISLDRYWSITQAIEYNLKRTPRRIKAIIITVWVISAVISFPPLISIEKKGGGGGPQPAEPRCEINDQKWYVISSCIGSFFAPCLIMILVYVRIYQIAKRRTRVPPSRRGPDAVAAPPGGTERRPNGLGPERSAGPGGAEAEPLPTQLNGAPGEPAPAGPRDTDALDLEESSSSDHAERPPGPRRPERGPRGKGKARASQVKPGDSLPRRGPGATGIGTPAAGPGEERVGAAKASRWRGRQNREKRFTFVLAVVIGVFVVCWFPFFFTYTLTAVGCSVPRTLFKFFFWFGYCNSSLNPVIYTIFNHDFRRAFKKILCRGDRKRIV
Procedure: The [^35S]GTPγs binding assay constitutes a functional measure of the interaction of the receptor and the G-protein and is a useful tool to distinguish between agonists (increasing the nucleotide binding), inverse agonists (decreasing the nucleotide binding), and neutral antagonists (not affecting the nucleotide binding) of GPCRs.^20 Experiments were performed in low-affinity receptor conditions for agonists (presence of guanine nucleotides and sodium in the medium), and therefore, typical potency values are two-three logarithmic units lower than affinity values obtained in radioligand receptor binding experiments.^20
(§1) Preparation of membranes. Neural membranes (P2 fractions) were prepared from the PFC of human brains obtained at autopsy in the Instituto Vasco de Medicina Legal, Bilbao, Spain. Postmortem human brain samples of each subject (˜1 g) were homogenized using a Teflon-glass grinder (10 up-and-down strokes at 1500 rpm) in 30 volumes of homogenization buffer (1 mM MgCl2, and 5 mM Tris-HCl, pH 7.4) supplemented with 0.25 M sucrose. The crude homogenate was centrifuged for 5 min at 1000×g ([…]) and the supernatant was centrifuged again for 10 min at 40000×g (4° C.). The resultant pellet was washed twice in 20 volumes of homogenization buffer and recentrifuged in similar conditions. Aliquots of 1 mg protein were stored at −70° C. until assay.
[^35S]GTPγs binding assays. The incubation buffer for measuring [^35S]GTPγs binding to brain membranes contained, in a total volume of 500 μL, 1 mM EGTA, 3 mM MgCl2, 100 mM NaCl, […], 50 mM Tris-HCl at pH 7.4 and 0.5 nM [^35S]GTPγs. Proteins aliquots were thawed and re-suspended in the same buffer. The incubation was started by addition of the membrane suspension (40 μg of membrane proteins) to the previous mixture and was performed at 30° C. for 120 min with shaking. In order to evaluate the influence of the compounds on [^35S]GTPγs binding, 8 concentrations (10^−10 to 10^−3M) of the different compounds were added to the assay. Incubations were terminated by adding 3 mL of ice-cold re-suspension buffer followed by rapid filtration through Whatman GF/C filters pre-soaked in the same buffer. The filters were rinsed twice with 3 mL of ice-cold re-suspension buffer, transferred to vials containing 5 mL of OptiPhase HiSafe II cocktail (Wallac, UK) and the radioactivity trapped was determined by liquid scintillation spectrometry (Packard 2200CA). […] Non-specific binding of the radioligand was defined as the remaining [^35S]GTPγs binding in the presence of 10 μM unlabelled GTPγs.

α2-ARs [3] = target: T1, α2-ARs; test: [3H]RX821002 competition binding assay in human brain PFC membranes; conditions: human brain tissue in vitro
[4] = tested on: extracellular NA levels in the PFC; test: In vivo microdialysis in the PFC, extracellular NA; parameters: species or system male Sprague Dawley rats; conditions: for Emax of increase in extracellular NA levels: local administration by reverse dialysis 1-100 μM in PFC, percentage of basal values
Description: Intracerebral microdialysis is a neurochemical technique that has been applied extensively in pharmacological studies aimed at investigating the effect of different drugs on brain neurotransmission. This technique allows one to collect a representative concentration of different neurotransmitters of the area where the probe is implanted while the animals are awake and freely moving.^21
Most antidepressant drugs are able to increase NA extracellular concentrations in different brain areas as the PFC, an area implicated in depression disease. Considering that α2-ARs exert a tonic inhibitory action on NA release from the noradrenergic terminals we assessed the ability of these two new compounds to increase NA extracellular concentration in this area. First, we tested the drugs when administered locally in order to confirm their antagonistic activity over α2-ARs in vivo.
A second step was to study the effect of these compounds increasing NA extracellular concentrations when administered systemically.
In Vivo Microdialysis assays. The experiments were carried out in male Sprague Dawley rats weighing between 250 g and 300 g. At the beginning of the experiments, animals were anaesthetized with chloral hydrate (400 mg/kg i.p.) and a microdialysis probe was implanted by stereotaxic surgery into prefrontal cortex (PFC) brain area. The coordinates selected for the PFC were as follows: AP (anterior to bregma) +2.8 mm, L (lateral from the mid-sagittal suture) +1 mm, DV (ventral from the dura surface) −5 mm.^22 After 24 hours for animal recovery, perfusion fluid (artificial cerebrospinal fluid) is pumped through the probe at a flow rate of 1 μl/min. In the semipermeable membrane, that is the critical side of the probe and is placed on the selected area, molecules flow into and out the cannulae by diffusion. Therefore, microdialysis technique allows local administration of substrates dissolved in the perfusion fluids.
When drugs were locally administered, they were dissolved in a CSF and applied during 70 min via dialysis probe implanted in the PFC in increasing concentrations of 1, 10 and 100 μM. The compounds systemically administered were dissolved in saline and injected intraperitoneally.
Samples, collected with the microdialysis procedure (every 35 min), were analyzed by HPLC with electrochemical detection. NA concentrations were monitorizated by an amperometric detector (Hewlett-Packard model 1049A) at an oxidizing potential of +650 mV. The movil phase (12 mM citric acid, 1 mM EDTA, 0.7 mM octylsodio sulfate, pH 5 and 10% methanol) was filtered, degassed (Hewlett-Packard model 1100 degasser) and delivered at a flow rate of 0.2 ml/min by a Hewlett-Packard model 1100 pump. Stationary phase was a column of 150×2.1 mm (Thermo Electron Corporation, U.S.A.). Samples (injection volume 37 μl) were injected and NA analized in a run time of 10 min. Solution of standard noradrenaline was injected every working day to create a new calibration table.
The mean values of the first three samples before substrate administration were considered as 100% basal value. All measures of extracellular NA concentrations are expressed as percentage of the baseline value±s.e.mean. One way analysis of variance (ANOVA) for control group or two way ANOVA between control and each treated group was assessed for statistical analysis. After the experiments, rats were sacrificed with an overdose of chloral hydrate and the brains were dissected to check the correct implantation of the probe.

α2-ARs [5] = target: T1, α2-ARs; test: [3H]RX821002 competition binding assay in human brain PFC membranes; conditions: human brain PFC tissue, competition with [3H]RX821002 1 nM
Procedure: as §1
[^3H]RX821002 binding assays. […] Incubations were terminated by diluting the samples with 5 ml of ice-cold Tris incubation buffer (4° C.). Membrane bound [^3H]RX821002 was separated by vacuum filtration through Whatman GF/C glass fibre filters. Then, the filters were rinsed twice with 5 ml of incubation buffer and transferred to minivials containing 3 ml of OptiPhase “HiSafe” II cocktail and counted for radioactivity by liquid scintillation spectrometry. Specific binding was determined and plotted as a function of the compound concentration. Non-specific binding was determined in the presence of adrenaline (10^−5 M).
Analysis of binding data. Analysis of competition experiments to obtain the inhibition constant (Ki) were performed by nonlinear regression using the GraphPad Prism program. All experiments were analysed assuming a one-site model of radioligand binding. Ki values were normalized to pKi values.

mice = test: Tail suspension test; format: in vivo; conditions: compared with saline control, FIG. 4
Description: The tail suspension test as illustrated in FIG. 4 has become one of the most widely used models for assessing antidepressant-like activity in mice. The test is based on the fact that animals subjected to the short-term, inescapable stress of being suspended by their tail, will develop an immobile posture. Antidepressant medications encourage the animal to struggle and promote the occurrence of escape-related behaviour.

| Structure (SMILES) | activity at cloned human α2-AR receptor [1] | agonistic or antagonistic properties in [35S]GTPγS experiments (α2-ARs [2]) | stimulation of [35S]GTPγS binding by the compound on its own (α2-ARs [2]) | Emax (α2-ARs [2]; read-out: Emax (%), percentage efficacy relative to UK14304) | affinity towards the α2-ARs compared with references (α2-ARs [3]) | Emax of increase in extracellular NA levels [4] | affinity for the α2-ARs expressed as pKi (α2-ARs [5]) | ability to cross the blood brain barrier (BBB) ([4]; deduced from NA increase after systemic administration) | α2-AR antagonist properties in vivo ([4]; local and systemic administration, rats) | increase of NA extracellular concentration, maximal effect ([4]; systemic (intraperitoneal) administration, evaluated in PFC) | immobility period (mice) |
| --- | --- | --- | --- | --- | --- | --- | --- | --- | --- | --- | --- |
| c1cc2c(cc1NC1=NCCN1)CCC2 [Compound 9b, 5-(2-imidazolidinylimino)indan] | agonist | agonistic properties | stimulated binding | 98% | within the range of those of Idazoxan and/or Clonidine | – | – | – | – | – | – |
| COC1(C2=NCCN2)COc2ccccc2O1 (stereo not drawn) [RX821002, 2-methoxy-idazoxan, reference compound] | – | – | – | – | – | 287±49% | 9.04 | – | – | – | – |
| c1cc(NC2=NCCN2)ccc1CCc1ccc(NC2=NCCN2)cc1 [Compound 20b, 4,4′-di(2-imidazolidinylimino)-1,2-diphenylethane] | – | antagonistic properties | did not stimulate binding | – | within the range of those of Idazoxan and/or Clonidine | 255±76% | – | able to cross the blood brain barrier | α2-AR antagonist properties in vivo | 156±35% | slightly shorter immobility period than the saline control |

— US20100331384A1, “GUANIDINE BASED COMPOUNDS” (UNIVERSIDAD DEL PAIS VASCO/EUSKAL HERRIKO UNIBERTSITATEA, priority 2007, published 2010)
